# Measurements as given in PMC12563087, “Preparation, Stability and In Vitro Antineoplastic Function of Lecithin–Chitosan–Polyethylene Glycol Nanoparticles Loaded with Bioactive Peptides Derived from Phycocyanin” (Foods, 2025).
# Ends that are not written are not given here.
# Test system: pepsin
# Assay: In vitro simulated gastric digestion (pepsin) of PCPs and PCP-loaded NPs
# Format: in vitro ADME
# Conditions: after 20 min of in vitro simulated gastric digestion by pepsin; mean ± SD
row,Substance,degradation rate
1,MFDAFTK [PCP3],77.24% ± 1.72%
2,AGDASVLEDR [PCP1],78.82% ± 3.46%
3,ADSLLSGLR [PCP2],71.65% ± 2.99%
